Experimental data reported in the supplement of paper PMC11451515.

Tested on: SEM cells
Assay: cell viability relative to DMSO control; higher = less cytotoxic
Conditions: 48 h
Outline: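 Three leukemia lines were tested: NOMO1 and SEM at 500 cells/well and P12-Ichikawa at 1000 cells/well. Each was adapted for at least four passages in each medium and seeded in 5 μl in 1536-well plates, and library compounds in DMSO were pin-dosed from 47 μM to 0.79 nM in 11 threefold steps. After 48 h at 37°C, CellTiter-Glo One luminescence was read. Viability is a percentage relative to DMSO wells on each plate, with cell-free wells as background.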

[1] = HPLM + 10% dialyzed FBS, 0.000781 µM
[2] = HPLM + 10% dialyzed FBS, 0.00234 µM
[3] = HPLM + 10% dialyzed FBS, 0.00702 µM
[4] = HPLM + 10% dialyzed FBS, 0.0211 µM
[5] = HPLM + 10% dialyzed FBS, 0.0632 µM
[6] = HPLM + 10% dialyzed FBS, 0.19 µM
[7] = HPLM + 10% dialyzed FBS, 0.569 µM
[8] = HPLM + 10% dialyzed FBS, 1.71 µM
[9] = HPLM + 10% dialyzed FBS, 5.12 µM
[10] = HPLM + 10% dialyzed FBS, 15.4 µM
[11] = HPLM + 10% dialyzed FBS, 46.1 µM
[12] = RPMI 5 mM glucose + 10% FBS, 0.000781 µM
[13] = RPMI 5 mM glucose + 10% FBS, 0.00234 µM
[14] = RPMI 5 mM glucose + 10% FBS, 0.00702 µM
[15] = RPMI 5 mM glucose + 10% FBS, 0.0211 µM
[16] = RPMI 5 mM glucose + 10% FBS, 0.0632 µM
[17] = RPMI 5 mM glucose + 10% FBS, 0.19 µM
[18] = RPMI 5 mM glucose + 10% FBS, 0.569 µM
[19] = RPMI 5 mM glucose + 10% FBS, 1.71 µM
[20] = RPMI 5 mM glucose + 10% FBS, 5.12 µM
[21] = RPMI 5 mM glucose + 10% FBS, 15.4 µM
[22] = RPMI 5 mM glucose + 10% FBS, 46.1 µM
[23] = RPMI 5 mM glucose + 10% dialyzed FBS, 0.000781 µM
[24] = RPMI 5 mM glucose + 10% dialyzed FBS, 0.00234 µM
[25] = RPMI 5 mM glucose + 10% dialyzed FBS, 0.00702 µM
[26] = RPMI 5 mM glucose + 10% dialyzed FBS, 0.0211 µM
[27] = RPMI 5 mM glucose + 10% dialyzed FBS, 0.0632 µM
[28] = RPMI 5 mM glucose + 10% dialyzed FBS, 0.19 µM
[29] = RPMI 5 mM glucose + 10% dialyzed FBS, 0.569 µM
[30] = RPMI 5 mM glucose + 10% dialyzed FBS, 1.71 µM
[31] = RPMI 5 mM glucose + 10% dialyzed FBS, 5.12 µM
[32] = RPMI 5 mM glucose + 10% dialyzed FBS, 15.4 µM
[33] = RPMI 5 mM glucose + 10% dialyzed FBS, 46.1 µM

Row | Structure (SMILES) | cell viability [1] [%] | cell viability [2] [%] | cell viability [3] [%] | cell viability [4] [%] | cell viability [5] [%] | cell viability [6] [%] | cell viability [7] [%] | cell viability [8] [%] | cell viability [9] [%] | cell viability [10] [%] | cell viability [11] [%] | cell viability [12] [%] | cell viability [13] [%] | cell viability [14] [%] | cell viability [15] [%] | cell viability [16] [%] | cell viability [17] [%] | cell viability [18] [%] | cell viability [19] [%] | cell viability [20] [%] | cell viability [21] [%] | cell viability [22] [%] | cell viability [23] [%] | cell viability [24] [%] | cell viability [25] [%] | cell viability [26] [%] | cell viability [27] [%] | cell viability [28] [%] | cell viability [29] [%] | cell viability [30] [%] | cell viability [31] [%] | cell viability [32] [%] | cell viability [33] [%]
1 | CC(C)(C)C1=CC(=C(NC(=O)C/2=C/NC3=C(C=CC=C3)C2=O)C=C1O)C(C)(C)C | 122 | 118 | 128 | 123 | 113 | 131 | 124 | 124 | 109 | 108 | 103 | 109 | 108 | 126 | 113 | 120 | 111 | 129 | 129 | 123 | 116 | 108 | 98.7 | 101 | 103 | 99.9 | 101 | 103 | 115 | 97.8 | 110 | 110 | 94.7
2 | CCOC(=O)[C@H]1O[C@@H]1C(=O)N[C@@H](CC(C)C)C(=O)NCCC(C)C | 116 | 119 | 109 | 125 | 120 | 132 | 69.4 | 114 | 118 | 118 | 109 | 111 | 99.4 | 102 | 96.2 | 110 | 88.4 | 91.1 | 124 | 107 | 104 | 94.6 | – | – | – | – | – | – | – | – | – | – | –
3 | C[N]1C=C(C=N1)C2=CC=C3N=CC\4=C(N(C(=O)\C=C4)C5=CC6=C(CCN6C(=O)C=C)C=C5)C3=C2 | 118 | 114 | 96.1 | 120 | 93.9 | 110 | 102 | 82.1 | 27.6 | 4.07 | 4.13 | 104 | 105 | 90.4 | 110 | 117 | 111 | 118 | 80.5 | 26.6 | 2.7 | 3.13 | – | – | – | – | – | – | – | – | – | – | –
4 | NC(CO)C(=O)NNCc1ccc(O)c(O)c1O (centres undefined) | 93.3 | 116 | 105 | 89.9 | 106 | 99.8 | 102 | 103 | 104 | 89.4 | 84.2 | 99.8 | 104 | 101 | 84.7 | 101 | 105 | 98.3 | 96.1 | 72.9 | 99 | 12.6 | 103 | 105 | 104 | 89.2 | 95 | 88.5 | 100 | 91.4 | 90.5 | 87.8 | 18
5 | O=C(O)Cc1cccc(OCCCN(Cc2cccc(C(F)(F)F)c2Cl)CC(c2ccccc2)c2ccccc2)c1 | 109 | 118 | 109 | 97.8 | 113 | 102 | 110 | 100 | 93.5 | 103 | 94.5 | 98.3 | 93.6 | 95.1 | 101 | 86.3 | 84.5 | 92 | 89.5 | 87.3 | 84.8 | 96.4 | 111 | 111 | 109 | 135 | 119 | 113 | 126 | 103 | 96.1 | 99.2 | 111
6 | COc1cc(Cl)cn2c(-c3cccc(NC4CNC4)n3)cnc12 | 114 | 117 | 131 | 121 | 133 | 116 | 125 | 90.8 | 128 | 105 | 96.8 | – | – | – | – | – | – | – | – | – | – | – | – | – | – | – | – | – | – | – | – | – | –
7 | C[C@@H](N)C1CC[C@@H](CC1)C(=O)NC2=CC=NC=C2 (some centres undefined) | 91.8 | 117 | 107 | 108 | 103 | 106 | 129 | 129 | 119 | 122 | 120 | 94 | 99.3 | 99.8 | 90.3 | 103 | 108 | 112 | 115 | 104 | 109 | 113 | 93.7 | 107 | 111 | 121 | 117 | 114 | 131 | 120 | 114 | 116 | 114
8 | CCOC(=O)O[C@]1(C(=O)OCCl)CC[C@H]2[C@@H]3CCC4=CC(=O)C=C[C@]4(C)[C@H]3[C@@H](O)C[C@@]21C | 84.2 | 92.5 | 93.3 | 102 | 101 | 99.3 | 95.6 | 96 | 102 | 88.7 | 100 | 82.9 | 85.4 | 87.9 | 84.6 | 92.7 | 87.3 | 85.1 | 109 | 107 | 96.1 | 96.6 | 83.5 | 87.4 | 93.6 | 85.7 | 85.4 | 94.8 | 86.1 | 89.3 | 96.4 | 99.2 | 92
9 | Clc1ccccc1C(c1ccccc1)(c1ccccc1)n1ccnc1 | 118 | 114 | 126 | 121 | 117 | 119 | 112 | 55.8 | 103 | 104 | 73.3 | 117 | 110 | 126 | 123 | 118 | 108 | 106 | 53.3 | 101 | 86.6 | 69.6 | – | – | – | – | – | – | – | – | – | – | –
10 | COC(=O)C/1=C(C)/N/C(=C(\C1C2=CC(=CC=C2)[N+]([O-])=O)C(=O)OCCCN3CCC(CC3)(C4=CC=CC=C4)C5=CC=CC=C5)C (centres undefined) | 113 | 94.1 | 114 | 42 | 95.5 | 104 | 100 | 109 | 90.3 | 94.8 | 98.6 | 93.4 | 97.7 | 98.2 | 39.7 | 90.3 | 97.8 | 98 | 95.7 | 104 | 106 | 91.1 | 100 | 92.3 | 100 | 43.2 | 97.2 | 95.6 | 101 | 112 | 96.5 | 100 | 102
11 | C1CN\2C[C@@H](\N=C2S1)C3=CC=CC=C3 | 82.1 | 95 | 104 | 88.6 | 98.7 | 99.5 | 100 | 100 | 97.8 | 100 | 86.1 | 73.7 | 86.7 | 89.4 | 83.1 | 90.9 | 75.2 | 87.6 | 89.3 | 88 | 87.8 | 40.4 | 88.8 | 95.3 | 100 | 107 | 106 | 116 | 107 | 106 | 118 | 100 | 76.9
12 | Cc1ccc(-c2cc(C(F)(F)F)nn2-c2ccc([S+](N)(=O)[O-])cc2)cc1 | 112 | 113 | 106 | 125 | 119 | 126 | 121 | 122 | 106 | 109 | 91.3 | 84.8 | 109 | 110 | 110 | 126 | 122 | 122 | 102 | 102 | 105 | 83.9 | 120 | 121 | 126 | 127 | 120 | 123 | 120 | 111 | 117 | 140 | 87.4
13 | CN(C)[C@@H](CCOc1cccc2ccccc12)c1ccccc1 | 139 | 115 | 125 | 110 | 119 | 120 | 100 | 108 | 111 | 107 | 65 | 120 | 122 | 122 | 127 | 132 | 131 | 103 | 118 | 95.7 | 114 | 71.2 | 101 | 121 | 117 | 127 | 131 | 129 | 91.5 | 132 | 101 | 136 | 81
14 | C[C@H](Cc1ccc(O)c(O)c1)[C@@H](C)Cc1ccc(O)c(O)c1 | 123 | 121 | 113 | 116 | 130 | 116 | 29 | 118 | 122 | 105 | 28.8 | 117 | 110 | 105 | 104 | 117 | 103 | 37.3 | 118 | 128 | 101 | 6.24 | 144 | 113 | 119 | 128 | 131 | 116 | 36.6 | 109 | 112 | 109 | 7.68
15 | Cc1ccc(/C=N/NC(=O)c2ccccc2Oc2ccccc2)o1 | 102 | 101 | 87 | 85.8 | 109 | 96.9 | 89.6 | 94.9 | 93.5 | 91.7 | 90.9 | 107 | 98.2 | 93 | 106 | 102 | 104 | 99.4 | 104 | 93.6 | 98.6 | 90.5 | 147 | 102 | 91.7 | 102 | 91.8 | 101 | 97.5 | 97.4 | 66.5 | 92.5 | 73.4
16 | CC[C@@H]1C(=O)N(C)c2cnc(Nc3ccc(C(=O)NC4CCN(C)CC4)cc3OC)nc2N1C1CCCC1 | – | – | – | – | – | – | – | – | – | – | – | 104 | 125 | 114 | 116 | 39 | 19.9 | 20.8 | 17.8 | 13.5 | 7.48 | 3.43 | 117 | 128 | 105 | 128 | 37.9 | 23.2 | 22.1 | 18.9 | 11.1 | 6.14 | 3.08
17 | NC\1=N\C(=O)N(\C=C1F)[C@H]2C[C@H](O)[C@@H](CO)O2 | 110 | 123 | 116 | 89.9 | 63.4 | 30.8 | 47.2 | 43.6 | 45.5 | 34.7 | 39.7 | – | – | – | – | – | – | – | – | – | – | – | 125 | 128 | 93 | 53.8 | 38.7 | 21.8 | 35.4 | 40.1 | 28 | 30.1 | 28.5
